These results are taken from patent publication US7176199B2, “Aryl-substituted alicyclic compound and medical composition comprising the same” (Dainippon Pharmaceutical Co., Ltd., priority 2001, dated 2007).

The target of one test is T1, αIIbβ3 integrin (Homo sapiens, UniProt P05106+P08514).
T1 construct: from tissue; host or cells: human platelets (Triton X-100 lysate)
The experiment in a line: Assay for the inhibition of αIIbβ3 integrin binding (fibrinogen as ligand, integrin captured from platelet lysate). As to conditions: inhibition of specific binding of biotinylated fibrinogen to αIIbβ3 integrin from human platelet lysate. Here is the method:
Experiment 2: Assay for the Inhibition of αIIbβ3 Integrin Binding
This experiment was carried out based on the method described in Thromb. Haemostasis, 75, 339 (1996), Blood, 93, 2559 (1999), using fibrinogen as a ligand. According to the method described in the above literatures, assay for the inhibition of αIIbβ3 integrin binding can be achieved by capturing αIIbβ3 integrin from platelet lysate with the use of an activated antibody against αIIbβ3 integrin.
Human platelets were isolated in a conventional manner. At 25° C., the isolated platelets were adjusted to a concentration of 1.25×10^9/ml with TBS+[50 mM Tris-HCl (pH 7.4), 150 mM NaCl, 2 mM CaCl2], and then ⅛ volume of TBS^+ containing 2 mM leupepsin and 10 mM PMSF was added and stirred gently. Nest, 1/9 volume of TBS+ containing 10% Triton X-100 was added and stirred gently. After standing on ice for 30 minutes, a platelet lysate was prepared from the mixture by discarding the insoluble fraction with centrifugation (10,000 g, 15 minutes).
Anti-mouse IgG goat antibody (Jackson Immunoresearch Laboratories, Inc., USA) was adjusted to a concentration of 5 μg/ml with sodium carbonate buffer (pH 9.6) and added to plates at 50 μl/well. The plate was left at 4° C. overnight for immobilization of the antibody. All subsequent steps were done at 25° C., and the procedure for each well was described hereafter.
The well was washed once with TBS^+, and then 200 μl of TBS^+ containing 5% BSA was added to the well and left for one hour for blocking. The well was washed with a reaction solution (TBS^+ containing 0.1% BSA and 0.05% Triton X-100) 4 times, and then 50 μl of anti-human αIIbβ3 integrin activated monoclonal antibody (TAKARA SHUZO CO., LTD, Japan, PT25-2 strain) adjusted to 5 μg/ml with the reaction solution was added to the well. After one hour reaction, the well was washed 4 times with the reaction solution, and 50 μl of the platelet lysate diluted 1:2 with the reaction solution was added to the well. Following 2 hours reaction, the well was washed 4 times with the reaction solution, and 50 μl of the reaction solution was added to the well. Subsequently, 25 μl of a test compound solution adjusted to each concentration with the reaction solution was added, and then mixed with 25 μl of biotinylated fibrinogen (Calbiochem, Germany) adjusted to 2 μg/ml with the reaction solution. The mixture was reacted for one hour. After washing 4 times with the reaction solution, 100 μl of alkaline phosphatase-labeled streptoavidin (Gibco BRL, USA) diluted 1:500 with the reaction solution was added to the well. Following 30 minutes reaction, the well was washed 4 times with the wash solution. Next, 50 μl of the NaDPH solution (Invitrogen, former company name: Gibco BRL, USA) was added and reacted for 20 minutes, and then 50 μl of an amplification solution containing diaphorase and alcohol dehydrogenase (Invitrogen, former company name: Gibco BRL, USA) was added. Color was developed for 20 minutes and the reaction was stopped by adding 50 μl of 0.5 M sulfuric acid.
The absorbance at 495 nm was measured with a plate reader to obtain a total binding. To obtain a nonspecific binding, EDTA adjusted to 20 mM with the reaction solution was added instead of the test compound solution. A specific binding was calculated by subtracting the nonspecific binding from the total binding.

The next test deals with αvβ3 integrin (Homo sapiens, UniProt P05106+P06756). The experiment in a line: Assay for the inhibition of αvβ3 integrin binding (vitronectin as ligand). Details: purchased Chemicon International, Inc., USA. The settings on record: inhibition of specific binding of biotinylated human vitronectin to immobilized αvβ3 integrin. As for the experimental part:
Experiment 1: Assay for the Inhibition of αvβ3 integrin binding
This experiment was carried out based on the method described in […].
Purified human αvβ3 integrin (Chemicon International, Inc., USA) was adjusted to a concentration of 1 μg/ml with TBS^++ [20 mM Tris-HCl (pH 7.4), 150 mM NaCl, 1 mM CaCl2, 1 mM MgCl2], and the diluted solution was added to plates (Labsystems, Finland) at 50 μl/well. The plate was left at 4° C. overnight for immobilization of the αvβ3 integrin. All subsequent steps were done at 25° C., and the procedure for each well was described hereafter.
The solution was discarded, and then 200 μl of TBS^++ containing 1% BSA (Wako Pure Chemical Industries, Ltd., Japan) was added to the well and left for one hour for blocking. The well was washed with a wash solution (TBS^++ containing 0.01% Tween 20) 4 times, and 50 μl of a reaction solution (TBS^++ containing 0.1% BSA and 0.01% Tween 20) was added to the well. Subsequently, 25 μl of a test compound solution adjusted to each concentration with the reaction solution was added, and then mixed with 25 μl of biotinylated (Amersham Pharmacia Biotech, UK) human vitronectin (Gibco BRL, USA) adjusted to 0.4 μg/ml with the reaction solution. The mixture was reacted for 2 hours. After washing 4 times with the wash solution, 100 μl of peroxidase-labeled streptoavidin (Amersham Pharmacia Biotech, UK) diluted 1:500 with the reaction solution was added to the well. Following 30 minutes reaction, the well was washed 4 times with the wash solution, and 100 μl of a TMB substrate solution (Bio-Rad Laboratories, USA) was added to the well. Color was developed for 20 minutes and the reaction was stopped by adding 100 μl of 0.5 M sulfuric acid.
The absorbance at 450 nm was measured with a plate reader (Molecular Devices, USA) to obtain a total binding. To obtain a nonspecific binding, EDTA adjusted to 20 mM with the reaction solution was added instead of the test compound solution. A specific binding was calculated by subtracting the nonspecific binding from the total binding.

Where only a bound is given, the exact number is not on record here.

αvβ3 integrin, sequence (P06756 31-889 limits assumed): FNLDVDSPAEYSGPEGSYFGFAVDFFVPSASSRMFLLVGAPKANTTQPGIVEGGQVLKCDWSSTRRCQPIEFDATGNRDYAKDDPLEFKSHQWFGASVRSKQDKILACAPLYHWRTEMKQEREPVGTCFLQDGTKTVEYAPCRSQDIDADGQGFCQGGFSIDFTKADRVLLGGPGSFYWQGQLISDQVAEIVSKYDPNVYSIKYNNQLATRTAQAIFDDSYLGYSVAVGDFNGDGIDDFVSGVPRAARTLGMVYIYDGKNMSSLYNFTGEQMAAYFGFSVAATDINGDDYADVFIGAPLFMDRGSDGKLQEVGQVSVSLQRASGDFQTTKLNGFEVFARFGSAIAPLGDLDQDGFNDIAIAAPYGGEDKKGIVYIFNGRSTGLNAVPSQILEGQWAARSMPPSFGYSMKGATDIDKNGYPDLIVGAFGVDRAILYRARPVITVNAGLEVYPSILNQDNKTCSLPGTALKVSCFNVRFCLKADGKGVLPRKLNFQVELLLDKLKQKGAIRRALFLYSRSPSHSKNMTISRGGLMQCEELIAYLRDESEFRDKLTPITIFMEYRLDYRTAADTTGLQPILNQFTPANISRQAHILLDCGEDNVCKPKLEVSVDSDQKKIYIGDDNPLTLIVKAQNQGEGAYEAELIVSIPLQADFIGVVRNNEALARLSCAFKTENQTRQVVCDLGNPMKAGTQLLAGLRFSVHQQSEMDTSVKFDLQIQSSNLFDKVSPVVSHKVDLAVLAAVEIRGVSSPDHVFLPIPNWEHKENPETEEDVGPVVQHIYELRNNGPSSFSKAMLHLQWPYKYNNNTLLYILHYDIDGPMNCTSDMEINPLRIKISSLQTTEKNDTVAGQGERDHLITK
αvβ3 integrin, sequence (P06756 891-1048 partner limits assumed): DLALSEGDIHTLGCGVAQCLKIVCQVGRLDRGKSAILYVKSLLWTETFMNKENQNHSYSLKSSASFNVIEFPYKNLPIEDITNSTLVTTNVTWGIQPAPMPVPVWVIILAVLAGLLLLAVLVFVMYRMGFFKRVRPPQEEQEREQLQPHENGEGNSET
αvβ3 integrin, sequence (P05106 27-788): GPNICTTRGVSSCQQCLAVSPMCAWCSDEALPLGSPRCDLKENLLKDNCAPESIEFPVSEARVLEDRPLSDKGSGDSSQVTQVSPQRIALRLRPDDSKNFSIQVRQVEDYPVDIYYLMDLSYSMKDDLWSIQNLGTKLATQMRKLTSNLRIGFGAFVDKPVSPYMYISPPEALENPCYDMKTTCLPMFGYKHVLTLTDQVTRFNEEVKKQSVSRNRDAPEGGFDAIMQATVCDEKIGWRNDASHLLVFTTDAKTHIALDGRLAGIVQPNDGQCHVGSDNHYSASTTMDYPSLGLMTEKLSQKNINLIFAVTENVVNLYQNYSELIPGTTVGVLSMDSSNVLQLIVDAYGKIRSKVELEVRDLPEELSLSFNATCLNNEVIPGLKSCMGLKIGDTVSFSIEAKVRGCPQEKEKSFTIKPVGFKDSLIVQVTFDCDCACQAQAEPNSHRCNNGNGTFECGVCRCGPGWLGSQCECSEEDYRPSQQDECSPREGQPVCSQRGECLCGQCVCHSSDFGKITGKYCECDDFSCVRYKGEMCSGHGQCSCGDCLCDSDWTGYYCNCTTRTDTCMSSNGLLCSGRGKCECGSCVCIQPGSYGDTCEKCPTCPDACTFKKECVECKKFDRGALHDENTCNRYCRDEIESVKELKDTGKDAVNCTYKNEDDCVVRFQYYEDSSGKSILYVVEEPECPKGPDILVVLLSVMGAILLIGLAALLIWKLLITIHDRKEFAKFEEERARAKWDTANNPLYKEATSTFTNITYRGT
T1 sequence (P08514 32-887 limits assumed): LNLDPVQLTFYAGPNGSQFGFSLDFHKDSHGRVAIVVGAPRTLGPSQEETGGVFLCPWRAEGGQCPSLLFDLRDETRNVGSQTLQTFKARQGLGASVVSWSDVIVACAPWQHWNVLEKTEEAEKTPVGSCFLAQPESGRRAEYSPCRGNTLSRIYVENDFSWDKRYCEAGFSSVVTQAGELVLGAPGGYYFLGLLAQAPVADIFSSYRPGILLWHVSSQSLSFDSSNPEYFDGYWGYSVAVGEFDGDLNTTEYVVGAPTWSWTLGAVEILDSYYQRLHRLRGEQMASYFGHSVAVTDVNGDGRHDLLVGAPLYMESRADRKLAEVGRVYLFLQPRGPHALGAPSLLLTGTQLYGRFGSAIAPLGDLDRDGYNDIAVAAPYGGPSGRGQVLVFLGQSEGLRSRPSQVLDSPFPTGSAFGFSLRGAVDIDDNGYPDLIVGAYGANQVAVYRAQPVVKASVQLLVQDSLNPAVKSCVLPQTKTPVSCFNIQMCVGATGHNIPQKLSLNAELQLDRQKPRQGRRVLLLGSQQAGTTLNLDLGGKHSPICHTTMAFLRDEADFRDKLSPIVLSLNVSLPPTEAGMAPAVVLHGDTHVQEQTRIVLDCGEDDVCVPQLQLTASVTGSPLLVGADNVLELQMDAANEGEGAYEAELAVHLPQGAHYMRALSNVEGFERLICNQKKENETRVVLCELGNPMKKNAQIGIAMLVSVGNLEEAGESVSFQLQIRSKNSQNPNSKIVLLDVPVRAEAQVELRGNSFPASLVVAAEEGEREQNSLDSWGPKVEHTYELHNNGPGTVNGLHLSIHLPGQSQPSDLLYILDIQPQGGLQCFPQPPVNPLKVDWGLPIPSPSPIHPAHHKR
T1 sequence (P08514 891-1039 partner limits assumed): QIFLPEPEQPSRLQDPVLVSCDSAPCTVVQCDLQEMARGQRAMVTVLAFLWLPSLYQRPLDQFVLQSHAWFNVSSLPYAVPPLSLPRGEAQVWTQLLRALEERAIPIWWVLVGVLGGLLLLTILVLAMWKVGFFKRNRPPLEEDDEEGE
T1 sequence (P05106 27-788): as the sequence (P05106 27-788) above

Regarding `CN(C[C@H](NC(=O)OCc1ccccc1)C(=O)O)C(=O)C1CCN(c2cccc(NC3=NCCCN3)c2)CC1` [Ex. 162, (2S)-2-benzyloxycarbonylamino-3-[[1-[3-(1,4,5,6-tetrahydropyrimidin-2-yl)aminophenyl]piperidin-4-yl]-N-methylcarbonylamino]propanoic acid], the IC50 is > 1000 nM at αIIbβ3 integrin and 0.21 nM on αvβ3 integrin.

Take `O=C(N[C@@H](CCC(=O)N1CCN(c2cccc(NC3=NCCN3)c2)CC1)C(=O)O)OCc1ccccc1` [Ex. 122]: the IC50 on αIIbβ3 integrin turned out to be 720 nM; at αvβ3 integrin, 0.16 nM.

For the compound `O=C(N[C@@H](CNC(=O)C1CCC(c2cccc(NC3=NCCCN3)c2)CC1)C(=O)O)OCc1ccccc1` (single isomer, unassigned) [Ex. 151B], the IC50 on αIIbβ3 integrin came to 510 nM; on αvβ3 integrin, 1.9 nM.

In the case of `O=C(N[C@@H](CNC(=O)C1CCN(c2cc(NC3=NCCCN3)ccn2)CC1)C(=O)O)OCc1ccccc1` [Ex. 159, (2S)-2-benzyloxycarbonylamino-3-[[1-[4-(1,4,5,6-tetrahydropyrimidin-2-yl)aminopyridin-2-yl]piperidin-4-yl]carbonylamino]-propanoic acid], the figures for the IC50 on αIIbβ3 integrin and on αvβ3 integrin were 86 nM and 0.06 nM, respectively.

For `CCCCCCCCOC(=O)N[C@@H](CNC(=O)C1CCN(c2cccc(NC3=NCCCN3)c2)CC1)C(=O)O` [Ex. 89, (2S)-2-octyloxycarbonylamino-3-[[1-[3-(1,4,5,6-tetrahydropyrimidin-2-yl)aminophenyl]piperidin-4-yl]carbonylamino]propanoic acid], the IC50 on αIIbβ3 integrin came out at 96 nM; on αvβ3 integrin, 0.1 nM.

On to `CCCCCCNC(=O)N[C@@H](CNC(=O)C1CCN(c2cccc(NC3=NCCCN3)c2)CC1)C(=O)O` [Ex. 117, (2S)-2-hexylaminocarbonylamino-3-[[1-[3-(1,4,5,6-tetrahydropyrimidin-2-yl)aminophenyl]piperidin-4-yl]carbonylamino]propanoic acid], for which the IC50 on αIIbβ3 integrin came out at 88 nM; on αvβ3 integrin, 0.35 nM.

On to `CC(C)(C)COC(=O)N[C@@H](CNC(=O)C1CCN(c2cccc(NC3=NCCCN3)c2)CC1)C(=O)O` [Ex. 93, (2S)-2-neopentyloxycarbonylamino-3-[[1-[3-(1,4,5,6-tetrahydropyrimidin-2-yl)aminophenyl]piperidin-4-yl]carbonylamino]propanoic acid], for which the IC50 turned out to be 150 nM on αIIbβ3 integrin and 0.2 nM at αvβ3 integrin.

As to `CC(C)COC(=O)N[C@@H](CNC(=O)C1CCN(c2cccc(NC3=NCC(O)CN3)c2)CC1)C(=O)O` (stereo partly drawn) [Ex. 20, (2S)-2-Isobutoxycarbonylamino-3-[[1-[3-(5-hydroxy-1,4,5,6-tetrahydropyrimidin-2-yl)aminophenyl]piperidin-4-yl]carbonylamino]-propanoic acid], the IC50 at αIIbβ3 integrin turned out to be 37 nM; at αvβ3 integrin, 0.061 nM.

Turning to `CCCCCCCCCCOC(=O)N[C@@H](CCC(=O)N1CCN(c2cccc(NC3=NCC(C)CN3)c2)CC1)C(=O)O` (some centres unmarked) [Ex. 135], the results for the concentration for half-maximal inhibition (IC50) at αIIbβ3 integrin and on αvβ3 integrin were > 1000 nM and 0.74 nM, respectively.

On to `O=C(N[C@@H](CCC(=O)N1CCN(c2cc(F)cc(NC3=NCCCN3)c2)CC1)C(=O)O)OCc1ccccc1` [Ex. 158, (2S)-2-benzyloxycarbonylamino-5-[4-[5-fluoro-3-(1,4,5,6-tetrahydropyrimidin-2-yl)aminophenyl]piperazin-1-yl]-5-oxopentanoic acid], for which the IC50 was determined as 750 nM at αIIbβ3 integrin and 0.14 nM at αvβ3 integrin.

As to `O=C(N[C@@H](CNC(=O)C1CCN(c2cccc(NC3=NCC(F)(F)CN3)c2)CC1)C(=O)O)OCc1ccccc1` [Ex. 12, (2S)-2-benzyloxycarbonylamino-3-[[1-[3-(5,5-difluoro-1,4,5,6-tetrahydropyrimidin-2-yl)aminophenyl]piperidin-4-yl]carbonylamino]-propanoic acid], the IC50 was 95 nM at αIIbβ3 integrin and 0.057 nM at αvβ3 integrin.

In the case of `CC(C)COC(=O)N[C@@H](CNC(=O)C1CCN(c2cc(NC3=NCCCN3)ccn2)CC1)C(=O)O` [Ex. 161], the IC50 on αIIbβ3 integrin is 77 nM; at αvβ3 integrin, 0.1 nM.

As for `CCCCOC(=O)N[C@@H](CNC(=O)C1CCN(c2cccc(NC3=NCCCN3)c2)CC1)C(=O)O` [Ex. 87, (2S)-2-butoxycarbonylamino-3-[[1-[3-(1,4,5,6-tetrahydropyrimidin-2-yl)aminophenyl]piperidin-4-yl]carbonylamino]propanoic acid], the IC50 at αIIbβ3 integrin worked out at 110 nM; at αvβ3 integrin it was 0.1 nM.

Turning to `COc1ccc(NC2=NCCCN2)cc1N1CCN(C(=O)CC[C@H](NC(=O)OCc2ccccc2)C(=O)O)CC1` [Ex. 154, (2S)-2-benzyloxycarbonylamino-5-[4-[2-methoxy-5-(1,4,5,6-tetrahydropyrimidin-2-yl)aminophenyl]piperazin-1-yl]-5-oxopentanoic acid], the IC50 on αIIbβ3 integrin was determined as 530 nM; at αvβ3 integrin, 0.096 nM.

Regarding `CCCCCCOC(=O)N[C@@H](CCC(=O)N1CCN(c2cccc(NC3=NCC(O)CN3)c2)CC1)C(=O)O` (some centres unmarked) [Ex. 131], the IC50 is 57 nM on αIIbβ3 integrin and 0.3 nM on αvβ3 integrin.

As for `CC(C)COC(=O)N[C@@H](CNC(=O)C1CCN(c2cccc(NC3=NCC(F)CN3)c2)CC1)C(=O)O` (stereo partly drawn) [Ex. 19, (2S)-2-isobutoxycarbonylamino-3-[[1-[3-(5-fluoro-1,4,5,6-tetrahydropyrimidin-2-yl)aminophenyl]piperidin-4-yl]carbonylamino]-propanoic acid], the IC50 on αIIbβ3 integrin was found to be 100 nM; at αvβ3 integrin, 0.032 nM.

For `CC(C)COC(=O)N[C@@H](CNC(=O)C1CCN(c2cccc(NC3=NCCCN3)c2)CC1)C(=O)O` [Ex. 92, (2S)-2-isobutoxycarbonylamino-3-[[1-[3-(1,4,5,6-tetrahydropyrimidin-2-yl)aminophenyl]piperidin-4-yl]carbonylamino]propanoic acid], the IC50 stood at 72 nM on αIIbβ3 integrin and 0.066 nM on αvβ3 integrin.

Consider `O=C(N[C@@H](CCC(=O)N1CCN(c2cccc(NC3=NCC(O)CN3)c2)CC1)C(=O)O)OCc1ccccc1` (some centres unmarked) [Ex. 125], for which the values for the IC50 at αIIbβ3 integrin and on αvβ3 integrin were 340 nM and 0.15 nM, respectively.

Turning to `O=C(N[C@@H](CNC(=O)C1CCN(c2cccc(NC3=NCCN3)c2)CC1)C(=O)O)OCc1ccccc1` [Ex. 9, (2S)-2-benzyloxycarbonylamino-3-[[1-[3-(2-imidazolin-2-yl)aminophenyl]piperidin-4-yl]carbonylamino]propanoic acid], the figures for the half-maximal inhibitory concentration (IC50) on αIIbβ3 integrin and at αvβ3 integrin were 54 nM and 0.059 nM, respectively.

As usually defined, the IC50 is the concentration that inhibits the measured activity by half. Low readings indicate greater potency, high ones weaker potency.
